Experimental data as given in patent publication US20230065562A1, “DUAL CONTROLS FOR THERAPEUTIC CELL ACTIVATION OR ELIMINATION” (Bellicum Pharmaceuticals, Inc., priority 2015, published 2023).

Experiments:
[1] = system: iCasp9M-transduced EBV-CTLs; assay: CID-induced apoptosis / loss of GFP+ cells in iCasp9M-transduced EBV-CTLs; assay type: cell-based, human
Experimental: CID (AP20187; ARIAD Pharmaceuticals) at indicated concentrations was added to transfected 293T cells or transduced CTLs. Adherent and nonadherent cells were harvested and washed with annexin binding buffer (BD Pharmingen, San Jose, Calif.). Cells were stained with annexin-V and 7-amino-actinomycin D (7-AAD) for 15 minutes according to the manufacturer's instructions (BD Pharmingen). Within 1 hour after staining, cells were analyzed by flow cytometry using CellQuest software (Becton Dickinson).
Inducible iCasp9M proficiency in CTLs was tested by monitoring loss of GFP-expressing cells after administration of CID; 91.3% (range, 89.5%-92.6% in 5 different donors) of GFP^+ cells were eliminated after a single 10-nM dose of CID. […] In all experiments, CTLs that survived CID treatment had low transgene expression with a 70% (range, 55%-82%) reduction in mean fluorescence intensity of GFP after CID. No further elimination of the surviving GFP^+ T cells could be obtained by an antigenic stimulation followed by a second 10-nM dose of CID. Therefore, the non-responding CTLs most likely expressed insufficient iCasp9M for functional activation by CID. To investigate the correlation between low levels of expression and CTL non-response to CID, CTLs were sorted for low, intermediate, and high expression of the linked marker gene GFP and mixed 1:1 with nontransduced CTLs from the same donor to allow for an accurate quantitation of the number of transduced T cells responding to CID-induced apoptosis.
The number of transduced T cells eliminated increased with the level of GFP transgene expression (see FIGS. 4A, 4B and 4C). To determine the correlation between transgene expression and function of iCasp9M, iCasp9M IRES.GFP-transduced EBV-CTL were selected for low (mean 21), intermediate (mean 80) and high (mean 189) GFP expression. Selected T-cells were incubated overnight with 10 nM CID and subsequently stained with annexin V and 7-AAD. Indicated are the percentages of annexin V+/7-AAD− and annexin V+/7-AAD+ T−. Selected T-cells were mixed 1:1 with non-transduced T-cells and incubated with 10 nM CID following antigenic stimulation. Indicated is the percentage of residual GFP-positive T-cells on day 7.
For GFPhigh-selected cells, 10 nM CID led to deletion of 99.1% (range, 98.7%-99.4%) of transduced cells. On the day of antigen stimulation, F-Casp9M.I.GFP-transduced CTLs were either untreated or treated with 10 nM CID. Seven days later, the response to CID was measured by flow cytometry for GFP. The percentage of transduced T cells was adjusted to 50% to allow for an accurate measurement of residual GFP^+ cells after CID treatment. The responses to CID in unselected (top row of and GFPhigh-selected CTLs (bottom row of was compared. The percentage of residual GFP^+ cells is indicated.
After overnight incubation with 10 nM CID, F-Casp9M.I.GFPhigh-transduced T cells had apoptotic characteristics such as cell shrinkage and fragmentation by microscopic evaluation. […] A representative example of 3 separate experiments is shown.

293 cells = assay: SEAP assay: iMC (tandem FKBP) scaffold plus FRBL2-Caspase-9; assay type: cell-based; conditions: tandem FKBPs (iMC) present
Experimental: FIGS. 16A and 16B are line graphs showing that tandem FKBP scaffold mediates FRBL2. Caspase activation in the presence of rapalogs. FIG. 16A. HEK-293 cells were transfected with 1 μg each of SRα-SEAP reporter plasmid, Δmyr.iMC.2A-anti-CD19.CAR.CD3ζ (pBP0608), and FRBL2. Caspase-9 (pBP0467). […] After ON incubation, cell supernatants were assayed for SEAP activity, as previously described. FIG. 16B. Similar to the experiment described in (FIG. 16A), except that cells were transfected with a membrane-localized (myristoylated) iMC.2A-CD19.CAR.CD3ζ (pBP0609), instead of non-myristoylated Δmyr.iMC.2A-CD19.CAR.CD3ζ (pBP0608).
In a second test for rapalog-mediated scaffold-based activation of Caspase-9, 293 cells were transiently transfected with SRα-SEAP reporter plasmid, plus myristoylated or non-myristoylated inducible iMC co-expressed with 1st generation anti-CD19 CAR, plus FRBL2-fused Caspase-9 (plasmid pBP0467) (FIG. 16).

HPAC PSCA+ tumor cells = assay: T cell anti-tumor assay with HPAC-RFP cells (IncuCyte, ELISA); assay type: cell-based, human; conditions: 10 nM on day 7 of co-culture
Experimental: PBMCs from donor 920 were activated and co-transduced with GFP-Ffluc and iMC+CARζ-T (189), i9+CARζ+MC (873), or FwtFRBC9/MC.FvFv (1308)-encoding vectors. […] (A & B) Two days post-seeding, culture supernatants were analyzed for IL-2, IL-6, and IFN-γ production by ELISA. […] Numbers of HPAC-RFP and T cell-GFP at the E:T 1:2 ratio was analyzed using the basic analyzer software for the IncuCyte at day 7 (Ci) and day 8 with 0 nM suicide drug (Cii) and 10 nM suicide drug (Ciii). Similar analysis was also performed at the 1:5 E:T ratio (D). (Note: the y-axis in Ci and Di are at log-scale).
The HPAC PSCA^+ tumor cells were stably labeled with nuclear-localized RFP protein using the NucLight™ Red Lentivirus Reagent (Essen Bioscience, 4625). To set up the coculture, 4000 HPAC-RFP cells were seeded per well of 96-well plates in 100 μl of CTL medium without IL-2 for at least 4 hours to allow tumor cells to adhere. After transduction with the appropriate retrovirus and allowed to rest for at least 7 days in culture, T were seeded according to various E:T ratios to the HPAC-RFP-containing 96-well plates. […] Each plate was set up in duplicates, one plate to monitor with the IncuCyte cell imaging system and one plate for supernatant collection for ELISA assay on day 2. The plates were centrifuged for 5 min at 400×g and placed inside the IncuCyte (Essen Bioscience, Dual Color Model 4459) to monitor red fluorescence (and green fluorescence if T cells were labeled with GFP-Ffluc) every 2-3 hours for a total of 7 days at 10× objective. Image analysis was performed using the “HPAC-RFP_TcellsGFP_10×_MLD” processing definition. On day 7, HPAC-RFP cells were analyzed using the “Red Object Count (1/well)” metric. […] On day 8, Tcell-GFP cells were analyzed using the “Total Green Object Integrated Intensity” metric. Each condition was performed at least in duplicates and each well was imaged at 4 different locations.

iRC9 = molecular target: T1, iRC9 (Homo sapiens, UniProt P42345+P62942); assay: Incucyte/casp3/7 and SEAP assays in transfected 293 cells (FIG. 107); assay type: cell-based
T1 construct: expressed in transfected cells; host or cells: 293 cells
T1 sequence (P42345 2025-2113): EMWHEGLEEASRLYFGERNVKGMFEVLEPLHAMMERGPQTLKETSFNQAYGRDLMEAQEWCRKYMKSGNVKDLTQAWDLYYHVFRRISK
T1 sequence (P62942 2-107): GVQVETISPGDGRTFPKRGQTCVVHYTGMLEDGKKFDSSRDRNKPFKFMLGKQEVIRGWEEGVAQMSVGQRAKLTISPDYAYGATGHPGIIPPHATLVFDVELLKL
T1 sequence (P55211 135-416 partner limits assumed): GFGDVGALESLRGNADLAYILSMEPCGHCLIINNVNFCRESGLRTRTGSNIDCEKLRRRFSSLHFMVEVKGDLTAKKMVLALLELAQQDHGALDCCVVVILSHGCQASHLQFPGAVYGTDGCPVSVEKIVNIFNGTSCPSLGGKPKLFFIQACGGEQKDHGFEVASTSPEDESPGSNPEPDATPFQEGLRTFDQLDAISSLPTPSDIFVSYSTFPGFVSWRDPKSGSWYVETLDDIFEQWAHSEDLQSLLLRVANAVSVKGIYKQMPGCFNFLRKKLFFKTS
Experimental: FIG. 107. […] 293 cells were seeded at 300,000 cells/well in a 6-well plate and allowed to grow for 2 days. After 48 h, cells were transfected with 1 μg of experimental plasmids. Cells were harvested 48 h after transfection and diluted 2.5× their original volume.

[2] = GFPhigh-selected, overnight 10 nM CID, mean
[3] = representative example of 3 experiments

Compound	concentration sufficient to obtain the maximal deletion effect ([1]; F-Casp9M.I.GFPhigh, day 7) [nM]	deletion of transduced cells ([1]; GFPhigh-selected cells, 10 nM CID) [%]	apoptotic (annexin-V+/7-AAD−) phenotype [1, 2] [%]	necrotic (annexinV+/7-AAD+) phenotype [1, 2] [%]	reduction in mean fluorescence intensity of GFP in surviving CTLs ([1]; after CID) [%]	apoptotic phenotype (annexin V+, 7-AAD−) [1, 3] [%]	necrotic phenotype (annexin V+, 7-AAD+) [1, 3] [%]	GFP+ cells eliminated ([1]; single 10-nM dose of CID, unselected CTLs, 5 donors) [%]	activation of FRBL2-Caspase-9 (293 cells)	reduction of i9+CARζ+MC T cells (HPAC PSCA+ tumor cells)	rimiducid concentration required to activate iRC9 (iRC9) [nM]
CC[C@H](C(=O)N1CCCC[C@H]1C(=O)O[C@H](CCc1ccc(OC)c(OC)c1)c1cccc(OCC(=O)NCC(CNC(=O)COc2cccc([C@@H](CCc3ccc(OC)c(OC)c3)OC(=O)[C@@H]3CCCCN3C(=O)[C@@H](CC)c3cc(OC)c(OC)c(OC)c3)c2)CN(C)C)c1)c1cc(OC)c(OC)c(OC)c1 [AP20187]	1	99.1	64	30	70	64	32	91.3	–	–	–
CC[C@H](C(=O)N1CCCC[C@H]1C(=O)O[C@H](CCc1ccc(OC)c(OC)c1)c1cccc(OCC(=O)NCCNC(=O)COc2cccc([C@@H](CCc3ccc(OC)c(OC)c3)OC(=O)[C@@H]3CCCCN3C(=O)[C@@H](CC)c3cc(OC)c(OC)c(OC)c3)c2)c1)c1cc(OC)c(OC)c(OC)c1 [rimiducid]	–	–	–	–	–	–	–	–	not activated	approximately 50%	> 100
